Data as given in patent US20080188528A1, “Modulators of C3a receptor and methods of use thereof” (priority 2006, published 2008).
Counter-ions that a name gives are not always drawn.

molecular target: T1, human C3a receptor (C3aR) (Homo sapiens, UniProt Q16581); test: Inhibition of human [125I]-C3a binding to human C3a receptor (SPA, membranes of HEK293 cells expressing recombinant C3aR); conditions: 0.1 nM [125I]-C3a, 3 hours at room temperature; Table 1
T1 construct: expressed in transfected cells
T1 sequence (Q16581 1-482): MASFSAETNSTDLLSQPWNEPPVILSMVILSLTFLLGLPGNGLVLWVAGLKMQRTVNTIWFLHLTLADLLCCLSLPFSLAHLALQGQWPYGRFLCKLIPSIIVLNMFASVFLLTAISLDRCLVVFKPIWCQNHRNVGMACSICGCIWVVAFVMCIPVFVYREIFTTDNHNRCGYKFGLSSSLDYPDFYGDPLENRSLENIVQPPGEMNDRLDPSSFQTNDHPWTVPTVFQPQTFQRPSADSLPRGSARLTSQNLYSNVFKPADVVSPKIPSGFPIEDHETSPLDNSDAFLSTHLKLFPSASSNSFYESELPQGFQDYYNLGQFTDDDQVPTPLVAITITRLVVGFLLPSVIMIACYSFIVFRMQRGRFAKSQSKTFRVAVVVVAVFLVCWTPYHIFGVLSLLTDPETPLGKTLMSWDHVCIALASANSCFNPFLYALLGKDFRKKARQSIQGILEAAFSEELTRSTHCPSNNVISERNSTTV
How it was run: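 HEK293 C3aR membranes were pre-coupled to WGA SPA beads and incubated 3 h at room temperature with 0.1 nM [125I]-C3a in HEPES pH 7.4 buffer containing 0.25% BSA and 0.2% CHAPS, DMSO ≤1%. Nonspecific binding was defined with 1 μM unlabeled C3a. IC50 came from nonlinear least-squares fitting.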

Row | SMILES | IC50 [µM]
1 | N=C(N)NCCC[C@H](NC(=O)c1cccn(CC(=O)N(c2ccccc2)c2ccccc2)c1=O)C(=O)O [Compound 37, (2S)-5-carbamimidamido-2-[({1-[2-(diphenylamino)-2-oxoethyl]-2-oxo-1,2-dihydropyridin-3-yl}carbonyl)amino]pentanoic acid•TFA] | 0.05 to 0.5
2 | N=C(N)NCCC[C@H](NC(=O)c1cccn(Cc2ccccc2-c2ccc3ccccc3c2)c1=O)C(=O)O [Compound 27, (2S)-5-carbamimidamido-2-[({1-[2-(2-naphthyl)benzyl]-2-oxo-1,2-dihydropyridin-3-yl}carbonyl)amino]pentanoic acid•TFA] | < 0.05
3 | N=C(N)NCCC[C@H](NC(=O)c1cccn(Cc2ccccc2-c2ccc(F)cc2)c1=O)C(=O)O [Compound 31, (2S)-5-carbamimidamido-2-[({1-[(4′-fluorobiphenyl-2-yl)methyl]-2-oxo-1,2-dihydropyridin-3-yl}carbonyl)amino]pentanoic acid•TFA] | < 0.05
4 | N=C(N)NCCC[C@H](NC(=O)c1cccn(Cc2ccccc2Cc2ccccc2)c1=O)C(=O)O [Compound 23, (2S)-2-({[1-(2-benzylbenzyl)-2-oxo-1,2-dihydropyridin-3-yl]carbonyl}amino)-5-carbamimidamidopentanoic acid•TFA] | < 0.05
5 | N=C(N)NCCC[C@H](NC(=O)c1cccn(Cc2cccc(-c3ccccc3)c2)c1=O)C(=O)O [Compound 21, (2S)-2-({[1-(biphenyl-3-ylmethyl)-2-oxo-1,2-dihydropyridin-3-yl]carbonyl}amino)-5-carbamimidamidopentanoic acid•TFA] | 0.05 to 0.5
6 | N=C(N)NCCC[C@H](NC(=O)c1cccn(Cc2ccc3ccccc3n2)c1=O)C(=O)O [Compound 15, (2S)-5-carbamimidamido-2-({[2-oxo-1-(quinolin-2-ylmethyl)-1,2-dihydropyridin-3-yl]carbonyl}amino)pentanoic acid•TFA] | 0.05 to 0.5
7 | N=C(N)NCCC[C@H](NC(=O)c1cccn(Cc2ccccc2Br)c1=O)C(=O)O [Compound 3, (2S)-2-({[1-(2-bromobenzyl)-2-oxo-1,2-dihydropyridin-3-yl]carbonyl}amino)-5-carbamimidamidopentanoic acid•TFA] | < 0.05
8 | N=C(N)NCCC[C@H](NC(=O)c1cccn(Cc2cccc(Cl)c2)c1=O)C(=O)O [Compound 38, (2S)-5-carbamimidamido-2-({[1-(3-chlorobenzyl)-2-oxo-1,2-dihydropyridin-3-yl]carbonyl}amino)pentanoic acid•TFA] | < 0.05
9 | N=C(N)NCCC[C@H](NC(=O)c1cccn(CCC(c2ccccc2)c2ccccc2)c1=O)C(=O)O [Compound 12, (2S)-5-carbamimidamido-2-({[1-(3,3-diphenylpropyl)-2-oxo-1,2-dihydropyridin-3-yl]carbonyl}amino)pentanoic acid•TFA] | < 0.05
10 | CC(C)c1ccccc1Cn1cccc(C(=O)N[C@@H](CCCNC(=N)N)C(=O)O)c1=O [Compound 6, (2S)-5-carbamimidamido-2-({[1-(2-isopropylbenzyl)-2-oxo-1,2-dihydropyridin-3-yl]carbonyl}amino)pentanoic acid•TFA] | 0.05 to 0.5

same assay, conditions: 0.1 nM [125I]-C3a, 3 hours at room temperature; Table 2

Row | SMILES | IC50 [µM]
11 | N=C(N)NCCC[C@H](NC(=O)c1cccn(C(c2ccc(C(F)(F)F)cc2)c2ccc(C(F)(F)F)cc2)c1=O)C(=O)O [Compound 49, (2S)-2-{[(1-{bis[4-(trifluoromethyl)phenyl]methyl}-2-oxo-1,2-dihydropyridin-3-yl)carbonyl]amino}-5-carbamimidamidopentanoic acid•TFA] | 0.05 to 0.5
12 | Cc1ccccc1C(c1ccccc1C)n1cccc(C(=O)N[C@@H](CCCNC(=N)N)C(=O)O)c1=O [Compound 42, (2S)-2-[({1-[bis(2-methylphenyl)methyl]-2-oxo-1,2-dihydropyridin-3-yl}carbonyl)amino]-5-carbamimidamidopentanoic acid•TFA] | < 0.05
13 | N=C(N)NCCC[C@H](NC(=O)c1cccn(C(c2cccc(C(F)(F)F)c2)c2cccc(C(F)(F)F)c2)c1=O)C(=O)O [Compound 48, (2S)-2-{[(1-{bis[3-(trifluoromethyl)phenyl]methyl}-2-oxo-1,2-dihydropyridin-3-yl)carbonyl]amino}-5-carbamimidamidopentanoic acid•TFA] | < 0.05
14 | Cc1cccc(C(c2cccc(C)c2)n2cccc(C(=O)N[C@@H](CCCNC(=N)N)C(=O)O)c2=O)c1 [Compound 43, (2S)-2-[({1-[bis(3-methylphenyl)methyl]-2-oxo-1,2-dihydropyridin-3-yl}carbonyl)amino]-5-carbamimidamidopentanoic acid] | < 0.05

same assay, conditions: 0.1 nM [125I]-C3a, 3 hours at room temperature; Table 3

Row | SMILES | IC50 [µM]
15 | N=C(N)NCCC[C@H](NC(=O)c1ccc(=O)n(C(c2ccccc2)c2ccccc2)c1)C(=O)O [Compound 57, (2S)-5-carbamimidamido-2-({[1-(diphenylmethyl)-6-oxo-1,6-dihydropyridin-3-yl]carbonyl}amino)pentanoic acid•TFA] | 0.5 to 20
16 | N=C(N)NCCC[C@H](NC(=O)c1ccc(Cc2ccccc2)cc1)C(=O)O [Compound 51, (2S)-2-[(4-benzylbenzoyl)amino]-5-carbamimidamidopentanoic acid•TFA] | 0.05 to 0.5
17 | N=C(N)NCCC[C@H](NC(=O)c1cccc(Cc2ccccc2)c1)C(=O)O [Compound 52, (2S)-2-[(3-benzylbenzoyl)amino]-5-carbamimidamidopentanoic acid•TFA] | 0.05 to 0.5

same assay, conditions: 0.1 nM [125I]-C3a, 3 hours at room temperature; Table 4

Row | SMILES | IC50 [µM]
18 | N=C(NCCC[C@H](NC(=O)c1cccn(C(c2ccccc2)c2ccccc2)c1=O)C(=O)O)N[N+](=O)[O-] [Compound 74, (2S)-2-({[1-(diphenylmethyl)-2-oxo-1,2-dihydropyridin-3-yl]carbonyl}amino)-5-(nitrocarbamimidamido)pentanoic acid] | 0.05 to 0.5
19 | N=C(N)Nc1cccc([C@H](NC(=O)c2cccn(Cc3ccccc3)c2=O)C(=O)O)c1 [Compound 72, (2S)-{[(1-benzyl-2-oxo-1,2-dihydropyridin-3-yl)carbonyl]amino}(3-carbamimidamidophenyl)acetic acid•TFA] | 0.05 to 0.5
20 | COC(=O)[C@H](CCCNC(=N)N)NC(=O)c1cccn(C(c2ccccc2)c2ccccc2)c1=O [Compound 80, methyl (2S)-5-carbamimidamido-2-({[1-(diphenylmethyl)-2-oxo-1,2-dihydropyridin-3-yl]carbonyl}amino)pentanoate] | < 0.05

same assay, conditions: 0.1 nM [125I]-C3a, 3 hours at room temperature; Table 6

Row | SMILES | IC50 [µM]
21 | CC(=N)NCCC[C@H](NC(=O)c1ccc(C(c2ccc(C)cc2)c2ccc(C)cc2)s1)C(=O)O [Compound 124, (2S)-2-[({5-[bis(4-methylphenyl)methyl]thiophen-2-yl}carbonyl)amino]-5-(ethanimidoylamino)pentanoic acid•TFA] | 0.5 to 20
22 | CCCC(=N)NCCC[C@H](NC(=O)c1ccc(C(c2ccccc2)c2ccccc2)s1)C(=O)O [Compound 118, (2S)-5-(butanimidoylamino)-2-({[5-(diphenylmethyl)thiophen-2-yl]carbonyl}amino)pentanoic acid•TFA] | 0.5 to 20
23 | CC(=N)NCCC[C@H](NC(=O)c1cccc(C(c2ccccc2)c2ccccc2)c1)C(=O)O [Compound 112, (2S)-2-({[3-(Diphenylmethyl)phenyl]carbonyl}amino)-5-(ethanimidoylamino)pentanoic acid] | 0.05 to 0.5
24 | CC(=N)NCCC[C@H](NC(=O)c1ccc(C(c2ccccc2)c2ccccc2)cc1)C(=O)O [Compound 108, (2S)-2-({[4-(Diphenylmethyl)phenyl]carbonyl}amino)-5-(ethanimidoylamino)pentanoic acid] | 0.5 to 20
25 | CC(=N)NCCC[C@H](NC(=O)c1cccn(Cc2ccccc2C(F)(F)F)c1=O)C(=O)O [Compound 107, (2S)-5-(ethanimidoylamino)-2-[({2-oxo-1-[2-(trifluoromethyl)benzyl]-1,2-dihydropyridin-3-yl}carbonyl)amino]pentanoic acid•TFA] | 0.5 to 20
26 | N=C(N)NCCC[C@@H](CC(=O)O)NC(=O)c1cccn(C(c2ccccc2)c2ccccc2)c1=O [Compound 89, (3S)-6-Carbamimidamido-3-({[1-(diphenylmethyl)-2-oxo-1,2-dihydropyridin-3-yl]carbonyl}amino)hexanoic acid] | < 0.05
27 | CC(=N)NCCC[C@H](NC(=O)c1cccn(Cc2cccc(Br)c2)c1=O)C(=O)O [Compound 109, (2S)-2-({[1-(3-bromobenzyl)-2-oxo-1,2-dihydropyridin-3-yl]carbonyl}amino)-5-(ethanimidoylamino)pentanoic acid•TFA] | 0.05 to 0.5
28 | CC(C)/N=C(\NCCC[C@H](NC(=O)c1cccn(C(c2ccccc2)c2ccccc2)c1=O)C(=O)O)NC(C)C [Compound 93, (2S)-5-({Bis[(1-methylethyl)amino]methylidene}amino)-2-({[1-(diphenylmethyl)-2-oxo-1,2-dihydropyridin-3-yl]carbonyl}amino)pentanoic acid] | 0.05 to 0.5
29 | CC(=N)NCCC[C@H](NC(=O)c1cccn(Cc2ccccc2Cl)c1=O)C(=O)O [Compound 104, (2S)-2-({[1-(2-chlorobenzyl)-2-oxo-1,2-dihydropyridin-3-yl]carbonyl}amino)-5-(ethanimidoylamino)pentanoic acid•TFA] | 0.5 to 20
